Measured values: patent US20050154230A1, “Urea derivatives” (Bayer HealthCare AG, priority 2001, published 2005)
Where two headings read alike, the source gives them in different places.

Legend:
human VR1 = biological target: T1, human VR1 (Homo sapiens, UniProt Q8NER1); assay: Capsaicin-induced Ca2+ influx in the human VR1-transfected CHO cell line (Assay 1); type: cell-based
T1 construct: expressed in transfected cells
In short: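 CHO cells expressing human VR1 with an aequorin reporter were treated with compound or vehicle for 20 min at 25° C. Capsaicin-induced Ca^2+ influx was then measured on an FDSS-3000. Integral R was calculated and compared with controls.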

[1] = human VR1-CHOluc9aeq cells, 10 nM capsaicin, compound purity about 40 to 90%, read-out: hVR1 class

T1 sequence (Q8NER1 whole entry): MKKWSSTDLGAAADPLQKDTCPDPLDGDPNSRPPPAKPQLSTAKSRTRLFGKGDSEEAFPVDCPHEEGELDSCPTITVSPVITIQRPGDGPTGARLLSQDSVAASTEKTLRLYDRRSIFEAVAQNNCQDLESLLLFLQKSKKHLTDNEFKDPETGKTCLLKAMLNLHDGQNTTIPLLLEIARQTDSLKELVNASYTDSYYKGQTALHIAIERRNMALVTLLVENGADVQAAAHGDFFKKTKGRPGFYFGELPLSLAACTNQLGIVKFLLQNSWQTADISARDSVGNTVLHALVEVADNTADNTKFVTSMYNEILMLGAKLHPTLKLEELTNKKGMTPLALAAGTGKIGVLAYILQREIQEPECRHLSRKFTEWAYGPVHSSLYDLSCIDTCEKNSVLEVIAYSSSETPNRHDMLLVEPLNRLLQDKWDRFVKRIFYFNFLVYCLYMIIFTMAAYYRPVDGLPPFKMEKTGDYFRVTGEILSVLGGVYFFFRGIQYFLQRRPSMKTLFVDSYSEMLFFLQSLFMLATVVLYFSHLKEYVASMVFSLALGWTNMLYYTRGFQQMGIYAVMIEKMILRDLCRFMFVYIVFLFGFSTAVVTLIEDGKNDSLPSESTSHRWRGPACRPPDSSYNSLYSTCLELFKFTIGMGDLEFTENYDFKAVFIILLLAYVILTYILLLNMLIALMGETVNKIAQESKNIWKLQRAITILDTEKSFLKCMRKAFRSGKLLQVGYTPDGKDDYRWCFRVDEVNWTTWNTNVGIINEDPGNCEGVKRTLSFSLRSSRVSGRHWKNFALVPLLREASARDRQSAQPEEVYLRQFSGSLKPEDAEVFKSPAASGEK

Row | IC50 (human VR1; [1]) [nM] | melting point | Compound | IC50 (human VR1) [nM]
1 | 100 to 500 | 186 to 187 °C | N#Cc1ccc(NC(=O)Nc2ccccc2CCO)cc1Cl [Example 191] | –
2 | 100 to 500 | 194 °C | O=C(Nc1ccc(-c2ccccc2)cc1)Nc1ccccc1CCO [Example 201] | –
3 | < 100 | 169 °C | O=C(Nc1cccc(-c2cc(F)cc(F)c2)c1)Nc1ccccc1CCO [Example 208] | –
4 | < 100 | 166 °C | COc1ccc(-c2cccc(NC(=O)Nc3ccccc3CCO)c2)cc1 [Example 204] | –
5 | < 100 | 113 °C | O=C(Nc1cccc(-c2cccc3ccccc23)c1)Nc1ccccc1CCO [Example 214] | –
6 | 500 to 1000 | 186 to 187 °C | COc1ccc(NC(=O)Nc2ccccc2CCO)cc1OC [Example 219] | –
7 | < 100 | 167 °C | Cc1ccc(C)c(-c2cccc(NC(=O)Nc3ccccc3CCO)c2)c1 [Example 197] | –
8 | < 100 | 153 °C | O=C(Nc1cccc(-c2ccccc2Cl)c1)Nc1ccccc1CCO [Example 196] | –
9 | < 100 | 141 to 143 °C | COc1ccc(Cl)cc1-c1cccc(NC(=O)Nc2ccccc2CCO)c1 [Example 227] | –
10 | < 100 | 188 °C | O=C(Nc1cccc(-c2cccc(F)c2)c1)Nc1ccccc1CCO [Example 211] | –
11 | 100 to 500 | 170 °C | COc1ccc(OC)c(-c2cccc(NC(=O)Nc3ccccc3CCO)c2)c1 [Example 198] | –

Further lines, the compound ahead of its results:

Row | Compound | IC50 (human VR1; [1]) [nM] | melting point | IC50 (human VR1) [nM]
12 | O=C(Nc1ccc2c(c1)Cc1ccccc1-2)Nc1ccccc1CCO [Example 169] | < 100 | > 250 °C | –
13 | COc1cc(CNC(=O)Nc2c(C)cc(C)cc2C)ccc1O [Example 72] | 500 to 1000 | 217 °C | –
14 | Cc1ccc2ccccc2c1NC(=O)Nc1ccccc1CCO [Example 164] | 500 to 1000 | 204 °C | –
15 | O=C(Nc1ccc([N+](=O)[O-])c(C(F)(F)F)c1)Nc1ccccc1CCO [Example 187] | 100 to 500 | 149 to 150 °C | –
16 | Cc1ccccc1CNC(=O)Nc1ccccc1CCO [Example 123] | 500 to 1000 | 186 to 188 °C | –
17 | CCn1c2ccccc2c2cc(NC(=O)Nc3ccccc3CCO)ccc21 [Example 172] | < 100 | 224 to 226 °C | –
18 | O=C(NCc1ccccc1)Nc1ccccc1CCO [Example 153] | 500 to 1000 | 149 to 150 °C | –
19 | O=C(Nc1cc(Cl)cc(Cl)c1)Nc1ccccc1CCO [Example 109] | 100 to 500 | 214 to 216 °C | –
20 | CCOc1ccccc1NC(=O)Nc1ccccc1CCO [Example 146] | 500 to 1000 | 112 to 114 °C (dec.) | –
21 | O=C(Nc1ccccc1CCO)Nc1ccccc1Cc1ccccc1 [Example 157] | 500 to 1000 | 162 to 164 °C | –
22 | O=C(Nc1cccc(F)c1)Nc1ccccc1CCO [Example 132] | 500 to 1000 | 166 °C | –
23 | O=C(Nc1ccc(N2CCCCC2)cc1)Nc1ccccc1CCO [Example 168] | 500 to 1000 | 188 °C | –
24 | N#Cc1ccc(NC(=O)Nc2ccccc2CCO)cc1C(F)(F)F [Example 186] | – | 171 °C | < 100
25 | COc1cc(CNC(=O)Nc2ccccc2[N+](=O)[O-])ccc1O [Example 58] | 500 to 1000 | 180 °C | –
26 | CC(=O)c1cccc(NC(=O)Nc2ccccc2CCO)c1 [Example 117] | 500 to 1000 | 177 °C | –
27 | O=C(Nc1ccc(Nc2ccccc2)cc1)Nc1ccccc1CCO [Example 159] | 500 to 1000 | 150 to 151 °C | –
28 | O=C(Nc1ccc(C(F)(F)F)cc1)Nc1ccccc1CCO [Example 108] | 100 to 500 | 178 to 180 °C | –
29 | COc1ccc(-c2ccccc2)cc1NC(=O)Nc1ccccc1CCO [Example 173] | 100 to 500 | 178 to 180 °C | –
